# According to ChEMBL document CHEMBL1143991, “The 2alpha-(3-hydroxypropyl) group as an active motif in vitamin D3 analogues as agonists of the mutant vitamin D receptor (Arg274Leu)” (Bioorg Med Chem, 2008):
# Activity calls are given as the source filed them. The rule behind the calls is not given here.
# Target: T1, Vitamin D3 receptor (Homo sapiens) (UniProt P11473)
# T1 sequence (whole entry): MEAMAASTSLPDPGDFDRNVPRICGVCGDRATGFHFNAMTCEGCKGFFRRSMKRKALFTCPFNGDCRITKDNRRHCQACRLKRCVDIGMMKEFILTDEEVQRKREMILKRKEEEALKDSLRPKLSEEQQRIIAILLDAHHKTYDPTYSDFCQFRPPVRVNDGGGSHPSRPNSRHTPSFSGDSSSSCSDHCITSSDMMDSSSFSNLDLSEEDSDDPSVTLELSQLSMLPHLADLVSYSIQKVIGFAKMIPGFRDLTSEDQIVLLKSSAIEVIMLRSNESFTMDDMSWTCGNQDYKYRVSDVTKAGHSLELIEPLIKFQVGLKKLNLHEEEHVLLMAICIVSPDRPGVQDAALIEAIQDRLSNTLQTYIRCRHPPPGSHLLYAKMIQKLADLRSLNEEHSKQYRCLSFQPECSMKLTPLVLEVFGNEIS
# Assay: Enhancement of VDR mediated transcriptional activity in human MCF7 cells
# Type: cell-based
row,Activity,SMILES
1,Active,C=C1/C(=C\C=C2/CCC[C@]3(C)[C@@H]([C@H](C)CCCC(C)(C)O)CC[C@@H]23)C[C@@H](O)[C@H](CCCO)[C@@H]1CO
2,Active,C=C1/C(=C\C=C2/CCC[C@]3(C)[C@@H]([C@H](C)CCCC(C)(C)O)CC[C@@H]23)C[C@@H](O)[C@H](CCCO)[C@@H]1O
3,Active,C=C1C[C@@H](CCCO)[C@H](O)C/C1=C/C=C1\CCC[C@]2(C)[C@@H]([C@H](C)CCCC(C)(C)O)CC[C@@H]12
4,Active,C=C1/C(=C\C=C2/CCC[C@]3(C)[C@@H]([C@H](C)CCCC(C)(C)O)CC[C@@H]23)C[C@@H](O)[C@H](CCCO)[C@H]1CO
